“And” between values parts separate entries of the source, which are not always exact repeats. Identical values can stand only once.
Columns and labels:
Type in all cases: cell-based
[1] = target: T1, SLC22A13h (Homo sapiens, UniProt Q9Y226); test: uptake/accumulation in 293 cells expressing SLC22A13h; conditions: for clearance: 1 min uptake, 0.1 μmol/l radiotracer
T1 construct: expressed in transfected cells; host or cells: 293 cells (HEK-293), pEBTetD plasmid, doxycycline-inducible
Method: The trigonelline content of cell lysates was determined by LC-MS/MS. […] 293 cells transfected with pEBTetD plasmids for the expression of SLC22 family carriers as indicated were grown in dishes and incubated overnight with (expression on) or without (off) doxycyclin in standard culture medium. Cells were washed with uptake buffer, incubated (1 min, 37° C.) in uptake buffer with or without 10 μmol/l unlabeled trigonelline, washed, and lysed.
(§1) For measurement of solute uptake, cells were grown in surface culture on 60 mm polystyrol dishes (Nunclon 150288, Nunc, Roskilde, Denmark) precoated with 0.1 g/l poly-L-ornithine in 0.15 M boric acid-NaOH, pH 8.4. Cells were used for uptake experiments at a confluence of at least 70%. Uptake was measured at 37° C. Uptake buffer contains 125 mmol/l NaCl, 25 mmol/l HEPES-NaOH pH 7.4, 5.6 mmol/l (+)glucose, 4.8 mmol/l KCl, 1.2 mmol/l KH2PO4, 1.2 mmol/l CaCl2, and 1.2 mmol/l MgSO4. In glutamate efflux experiments, uptake buffer without KH2PO4 was used to avoid MS interference. After preincubation for at least 20 minutes in 4 ml of uptake buffer, the buffer was replaced with 2 ml of substrate in uptake buffer. The total substrate concentration if not indicated otherwise was 0.1 μmol/l for radiotracer assays and 10 μmol/l for unlabeled compounds. Incubation was stopped after 1 min by rinsing the cells four times each with 4 ml ice-cold uptake buffer. Radioactivity was determined, after cell lysis with 0.1% v/v Triton X-100 in 5 mmol/l TRIS-HCl pH 7.4, by liquid scintillation counting. For LCelectrospray ionization-MS/MS analysis, cells were lysed with methanol and stored at −20° C.
After centrifugation (1 min, 16000×g, 20° C.) of thawed lysates, 100 μl of the supernatant was mixed with either 10 μl unlabeled MPP+ iodide (0.5 ng/μl) or biphenyl-4-carboxylic acid (Sigma-Aldrich) as internal standard. Of this mixture, […] were analyzed by LCMS/MS on a triple quadrupole mass spectrometer (4000 Q TRAP, Applied Biosystems, Darmstadt, Germany). […] For quantification (scan time 150 ms), the optimal collision energy for argon-induced fragmentation in the second quadrupole was determined for each analyte. […] Sample analyte content was calculated from the analyte response ratio and the slope of the calibration curve, obtained by linear regression. With LC-MS quantitation, solute content of cell lysates was determined for 4 conditions (paired dishes, incubation time 1 min): a) transporter expression on, uptake buffer; b) expression off, uptake buffer; c) expression on, substrate in uptake buffer; d) expression off, substrate in uptake buffer. Acute uptake mediated by heterologously expressed carrier was then calculated as (c−a)−(d−b). […] Protein was measured by the BCA assay (Pierce) with bovine serum albumin as standard. […]

[2] = target: T2, OAT2r (Rattus norvegicus, UniProt Q5RLM2); test: efflux of glutamate from OAT2r-expressing 293 cells (LC-MS/MS)
T2 construct: expressed in transfected cells
T2 sequence (Q5RLM2 1-535): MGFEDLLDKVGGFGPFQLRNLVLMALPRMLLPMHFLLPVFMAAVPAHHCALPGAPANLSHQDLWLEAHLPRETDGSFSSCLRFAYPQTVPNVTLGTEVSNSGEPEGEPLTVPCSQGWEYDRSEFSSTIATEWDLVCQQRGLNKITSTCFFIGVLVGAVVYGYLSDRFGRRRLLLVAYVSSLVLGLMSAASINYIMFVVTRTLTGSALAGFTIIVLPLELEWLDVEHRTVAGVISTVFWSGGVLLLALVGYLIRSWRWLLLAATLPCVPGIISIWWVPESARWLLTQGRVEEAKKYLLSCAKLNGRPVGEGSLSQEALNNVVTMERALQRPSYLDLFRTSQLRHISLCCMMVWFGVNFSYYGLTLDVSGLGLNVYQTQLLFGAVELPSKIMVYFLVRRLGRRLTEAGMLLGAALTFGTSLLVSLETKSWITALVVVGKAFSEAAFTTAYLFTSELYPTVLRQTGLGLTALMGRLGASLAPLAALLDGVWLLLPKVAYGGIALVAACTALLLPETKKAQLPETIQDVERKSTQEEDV
Method: To test this hypothesis, 293 cells with or without expression of OAT2r were incubated 10 min in uptake buffer; then, the glutamate content of a buffer sample was determined by LC-MS/MS.
as §1

[3] = target: T3, OAT2h (Homo sapiens, UniProt Q9Y694); test: 1 min uptake into 293 cells expressing OAT2 from human; conditions: for clearance: 1 min uptake, 0.1 μmol/l radiotracer
T3 construct: expressed in transfected cells; host or cells: 293 cells (HEK-293), pEBTetD/OAT2h, doxycycline-inducible
T3 sequence (Q9Y694 1-546 isoform Q9Y694-2): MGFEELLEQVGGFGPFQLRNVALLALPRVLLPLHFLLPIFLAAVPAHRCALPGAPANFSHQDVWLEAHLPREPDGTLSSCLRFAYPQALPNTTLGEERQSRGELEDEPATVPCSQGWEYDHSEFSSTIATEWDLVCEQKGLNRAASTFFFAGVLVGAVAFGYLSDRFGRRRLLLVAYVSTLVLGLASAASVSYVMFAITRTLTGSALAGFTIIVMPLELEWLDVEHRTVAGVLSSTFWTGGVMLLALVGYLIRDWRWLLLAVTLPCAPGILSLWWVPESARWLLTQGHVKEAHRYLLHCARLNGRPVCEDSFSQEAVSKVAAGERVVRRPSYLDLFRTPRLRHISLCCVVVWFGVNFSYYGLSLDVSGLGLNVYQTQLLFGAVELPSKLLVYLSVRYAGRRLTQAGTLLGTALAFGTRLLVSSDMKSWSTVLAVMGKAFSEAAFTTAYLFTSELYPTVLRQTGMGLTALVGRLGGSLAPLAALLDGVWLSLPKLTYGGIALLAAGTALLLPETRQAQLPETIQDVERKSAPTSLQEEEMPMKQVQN
Method: Cells were used for uptake experiments at a confluence of at least 70%. Uptake was measured at 37° C. […] After preincubation for at least 20 minutes in 4 ml of uptake buffer, the buffer was replaced with 2 ml of substrate in uptake buffer. The total substrate concentration if not indicated otherwise was 0.1 μmol/l for radiotracer assays and 10 μmol/l for unlabeled compounds. Incubation was stopped after 1 min by rinsing the cells four times each with 4 ml ice-cold uptake buffer. Radioactivity was determined, after cell lysis with 0.1% v/v Triton X-100 in 5 mmol/l TRIS-HCl pH 7.4, by liquid scintillation counting. For LCelectrospray ionization-MS/MS analysis, cells were lysed with methanol and stored at −20° C.
After centrifugation (1 min, 16000×g, 20° C.) of thawed lysates, 100 μl of the supernatant was mixed with either 10 μl unlabeled MPP+ iodide (0.5 ng/μl) or biphenyl-4-carboxylic acid (Sigma-Aldrich) as internal standard. […] Atmospheric pressure ionization with positive or negative electrospray was used. For quantification (scan time 150 ms), the optimal collision energy for argon-induced fragmentation in the second quadrupole was determined for each analyte. […] Linear calibration curves were constructed from at least six standards which were prepared using control cell lysates as solvent. Sample analyte content was calculated from the analyte response ratio and the slope of the calibration curve, obtained by linear regression. With LC-MS quantitation, solute content of cell lysates was determined for 4 conditions (paired dishes, incubation time 1 min): a) transporter expression on, uptake buffer; b) expression off, uptake buffer; c) expression on, substrate in uptake buffer; d) expression off, substrate in uptake buffer. Acute uptake mediated by heterologously expressed carrier was then calculated as (c−a)−(d−b). This approach takes into account endogenous solute content and non-specific uptake. Protein was measured by the BCA assay (Pierce) with bovine serum albumin as standard. The protein content of MS samples was estimated from 3 matched cell dishes.

T1 sequence (Q9Y226 whole entry): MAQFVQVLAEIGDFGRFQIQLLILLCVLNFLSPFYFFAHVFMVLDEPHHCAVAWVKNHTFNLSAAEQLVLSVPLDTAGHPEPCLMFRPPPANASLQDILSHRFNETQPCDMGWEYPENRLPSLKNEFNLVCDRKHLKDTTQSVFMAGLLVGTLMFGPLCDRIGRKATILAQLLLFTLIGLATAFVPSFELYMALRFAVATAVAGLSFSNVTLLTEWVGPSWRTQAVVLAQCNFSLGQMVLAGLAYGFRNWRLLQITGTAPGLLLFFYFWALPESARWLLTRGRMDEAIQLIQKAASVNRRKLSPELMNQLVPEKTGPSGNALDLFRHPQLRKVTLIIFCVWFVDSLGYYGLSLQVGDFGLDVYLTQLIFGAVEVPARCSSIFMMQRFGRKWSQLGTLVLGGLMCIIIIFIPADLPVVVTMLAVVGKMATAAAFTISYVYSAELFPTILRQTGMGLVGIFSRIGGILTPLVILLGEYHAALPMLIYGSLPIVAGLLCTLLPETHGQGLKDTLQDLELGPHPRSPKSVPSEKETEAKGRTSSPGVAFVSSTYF

SMILES: N[C@@H](CCC(=O)O)C(=O)O [glutamate]
- transport of glutamate (in words) [1]: do not transport
- clearance [1]: 0.3±0.6 μl min-1 mg protein-1
- release of glutamate upon expression of OAT2 (in words) ([2]; 10 min in uptake buffer, without extracellular exchange substrate): markedly increased release
- clearance ([3]; sodium-free buffer): 70±5 μl min-1 mg protein-1
- Vmax ([3]; saturation of OAT2h-mediated specific uptake, 1 min, sodium-free buffer): 36±4 nmol min-1 mg protein-1
- Km ([3]; saturation of uptake, sodium-free buffer, measured as uptake): 1100 µM

SMILES: O=C(O)c1cc(=O)[nH]c(=O)[nH]1 [orotic acid]
- clearance [1]: 3.8±0.3 μl min-1 mg protein-1
- effect on efflux of glutamate (in words) ([2]; 1 mmol/l compound in uptake buffer, 10 min): strongly trans-stimulated efflux of glutamate
- clearance ([3]; uptake buffer): 46±1 μl min-1 mg protein-1 and 46 μl min-1 mg protein-1

SMILES: C[n+]1cccc(C(=O)[O-])c1 [trigonelline]
- accumulation of trigonelline upon carrier expression (in words) ([1]; expression of SLC22A13 in 293 cells, FIG. 14): without effect
- carrier-mediated clearance ([3]; initial rate 1 min, 37° C., 10 μmol/l, LC-MS/MS, uptake buffer in the expression period): 121±5 μl min-1 mg protein-1

— patent US20140090094A1, “MODULATORS OF SLC22A7” (BAYER INTELLECTUAL PROPERTY GmbH, priority 2011, published 2014)
